# Test results published in patent US10670605B2, “Cysteine reactive probes and uses thereof” (The Scripps Research Institute, priority 2015, dated 2020).
# Experiments:
# Experiment in all cases: Competitive isoTOP-ABPP, cell lysates
# Assay type in all cases: binding
# ACAT1 C196 (P24752) = biological target: T1, ACAT1 C196 (P24752) (Homo sapiens, UniProt P24752); details: for isoTOP-ABPP reactivity profile ratio, P24752_C196 / isoTOP-ABPP reactivity ratio, P24752_C196: 500 μm; for R value (DMSO/fragment) / isoTOP-ABPP ratio, P24752_C196: 500 μM; for isoTOP-ABPP ratio, P24752_C196: 231
# T1 sequence (P24752 34-427): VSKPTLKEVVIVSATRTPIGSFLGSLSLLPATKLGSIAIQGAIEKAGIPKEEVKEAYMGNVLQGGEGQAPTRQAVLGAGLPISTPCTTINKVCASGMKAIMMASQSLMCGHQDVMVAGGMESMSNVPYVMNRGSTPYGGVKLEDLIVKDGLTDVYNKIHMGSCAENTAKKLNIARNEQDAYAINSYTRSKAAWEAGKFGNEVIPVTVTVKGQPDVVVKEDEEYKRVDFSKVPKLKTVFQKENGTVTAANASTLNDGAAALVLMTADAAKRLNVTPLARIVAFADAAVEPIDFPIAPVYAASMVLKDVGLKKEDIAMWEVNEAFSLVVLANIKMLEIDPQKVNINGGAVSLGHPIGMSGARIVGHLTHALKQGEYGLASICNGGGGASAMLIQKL
# MGMT C150 (P16455) = biological target: T2, MGMT C150 (P16455) (Homo sapiens, UniProt P16455); details: for isoTOP-ABPP ratio (reactivity profile), P16455_C150: 500 μm in-vitro ramos; for isoTOP-ABPP reactivity ratio, P16455_C150 / isoTOP-ABPP reactivity profile ratio, P16455_C150: 500 μm, in-vitro_ramos
# T2 sequence (P16455 1-207): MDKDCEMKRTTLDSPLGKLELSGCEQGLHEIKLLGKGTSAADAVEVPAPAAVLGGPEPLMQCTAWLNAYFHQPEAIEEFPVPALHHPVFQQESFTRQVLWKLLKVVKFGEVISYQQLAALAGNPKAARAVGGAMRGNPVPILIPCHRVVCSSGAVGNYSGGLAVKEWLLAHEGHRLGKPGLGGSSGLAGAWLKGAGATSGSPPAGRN
# ZNF217 C286 (O75362) = ZNF217 C286 (O75362) (Homo sapiens, UniProt O75362); details: for isoTOP-ABPP ratio (reactivity profile), O75362_C286: 500 μm in-vitro ramos_231
# Sequence of ZNF217 C286 (O75362) (O75362 whole entry): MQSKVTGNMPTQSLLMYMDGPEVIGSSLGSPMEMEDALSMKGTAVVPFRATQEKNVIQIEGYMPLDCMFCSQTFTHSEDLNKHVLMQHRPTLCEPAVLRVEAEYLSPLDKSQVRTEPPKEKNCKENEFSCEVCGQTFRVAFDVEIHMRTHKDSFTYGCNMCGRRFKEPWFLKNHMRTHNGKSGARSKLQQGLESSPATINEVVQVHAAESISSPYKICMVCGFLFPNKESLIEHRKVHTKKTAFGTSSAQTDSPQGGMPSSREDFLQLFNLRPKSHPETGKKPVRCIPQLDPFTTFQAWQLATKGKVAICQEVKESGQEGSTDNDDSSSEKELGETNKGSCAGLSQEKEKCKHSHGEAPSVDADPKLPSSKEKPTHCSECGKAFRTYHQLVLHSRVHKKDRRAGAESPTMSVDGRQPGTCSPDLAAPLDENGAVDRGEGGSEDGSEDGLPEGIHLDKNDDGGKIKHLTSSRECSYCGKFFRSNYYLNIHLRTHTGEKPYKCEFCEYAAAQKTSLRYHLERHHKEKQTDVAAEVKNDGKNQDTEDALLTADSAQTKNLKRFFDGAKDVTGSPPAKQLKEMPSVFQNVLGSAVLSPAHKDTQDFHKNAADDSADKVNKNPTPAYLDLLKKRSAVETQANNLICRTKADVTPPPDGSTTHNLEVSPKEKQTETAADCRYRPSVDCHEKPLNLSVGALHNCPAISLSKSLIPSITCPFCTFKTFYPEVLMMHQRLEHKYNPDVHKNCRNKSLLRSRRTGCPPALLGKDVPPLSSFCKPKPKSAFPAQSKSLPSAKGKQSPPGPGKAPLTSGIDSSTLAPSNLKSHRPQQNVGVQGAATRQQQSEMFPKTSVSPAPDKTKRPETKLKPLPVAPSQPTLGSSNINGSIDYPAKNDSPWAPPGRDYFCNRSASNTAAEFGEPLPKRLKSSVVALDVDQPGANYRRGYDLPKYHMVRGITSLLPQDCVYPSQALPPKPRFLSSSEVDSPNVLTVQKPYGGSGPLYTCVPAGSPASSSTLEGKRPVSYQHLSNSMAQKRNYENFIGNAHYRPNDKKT
smiles,measurement,setting,value
O=C(CCl)NC1C(O)OC(CO)C(O)C1O (mixture of isomers) [compound 44],"isoTOP-ABPP reactivity profile ratio, P24752_C196",ACAT1 C196 (P24752); in-vitro_ramos_231,0.8
O=C(CCl)Nc1cc(C(F)(F)F)cc(C(F)(F)F)c1 [compound 3],R value (DMSO/fragment),"ACAT1 C196 (P24752); in vitro, MDA-MB-231",1.7
same,R value (DMSO/fragment),"ACAT1 C196 (P24752); invitro, ramos",3.1
same,R value (DMSO/fragment),"MGMT C150 (P16455); 500 μM, invitro, ramos",17.1
same,R value (DMSO/fragment),"ZNF217 C286 (O75362); 500 μM, in vitro, MDA-MB-231",1.4
CNS(=O)(=O)C=Cc1ccc2c(ccn2Cc2ccccc2)c1 [compound 6],"isoTOP-ABPP ratio, P24752_C196",ACAT1 C196 (P24752); invitro,1.0
same,isoTOP-ABPP ratio O75362_C286,"ZNF217 C286 (O75362); 500 μM, invitro, 231",0.9
C=CC(=O)N(Cc1cccnc1)c1ccc(Oc2ccccc2)c(C(F)(F)F)c1 [compound 15],"isoTOP-ABPP ratio, P24752_C196",ACAT1 C196 (P24752); invitro,0.9
same,"isoTOP-ABPP ratio (reactivity profile), P24752_C196",ACAT1 C196 (P24752); 500 μm in-vitro ramos,1.6
same,"isoTOP-ABPP ratio (reactivity profile), P16455_C150",MGMT C150 (P16455),1.9
O=C(CCl)NC12CC3CC(CC(C3)C1)C2 [compound 21],"isoTOP-ABPP ratio (reactivity profile), P24752_C196",ACAT1 C196 (P24752); 500 μm in-vitro ramos,1.1
same,"isoTOP-ABPP ratio (reactivity profile), P24752_C196",ACAT1 C196 (P24752); 500 μm in-vitro ramos_231,1.0
same,"isoTOP-ABPP ratio (reactivity profile), P16455_C150",MGMT C150 (P16455),17.2
same,"isoTOP-ABPP ratio (reactivity profile), O75362_C286",ZNF217 C286 (O75362),0.9
O=C(CCl)N1CCN(CC(=O)N2CCOCC2)CC1 [compound 29],"isoTOP-ABPP ratio (reactivity profile), P24752_C196",ACAT1 C196 (P24752); 500 μm in-vitro ramos,1.0
same,"isoTOP-ABPP ratio (reactivity profile), P24752_C196",ACAT1 C196 (P24752); 500 μm in-vitro ramos_231,1.3
same,"isoTOP-ABPP ratio (reactivity profile), P16455_C150",MGMT C150 (P16455),1.3
same,"isoTOP-ABPP ratio (reactivity profile), O75362_C286",ZNF217 C286 (O75362),0.9
O=C(CCl)N(Cc1ccc(F)cc1)C12CC3CC(CC(C3)C1)C2 [compound 34],"isoTOP-ABPP reactivity ratio, P24752_C196",ACAT1 C196 (P24752); in-vitro_ramos,1.0
same,"isoTOP-ABPP reactivity ratio, P24752_C196",ACAT1 C196 (P24752); in-vitro_ramos_231,0.8
same,"isoTOP-ABPP reactivity ratio, P16455_C150",MGMT C150 (P16455),1.4
C=CC(=O)N1CCC(c2noc3ccc(F)cc23)CC1 [compound 37],"isoTOP-ABPP reactivity ratio, P24752_C196",ACAT1 C196 (P24752); in-vitro_ramos,1.0
same,"isoTOP-ABPP reactivity ratio, P16455_C150",MGMT C150 (P16455),1.0
same,"isoTOP-ABPP reactivity ratio, O75362_C286","ZNF217 C286 (O75362); 500 μm, in-vitro_ramos",0.9
C=CC(=O)Nc1cc(C)c(Br)cc1C [compound 40],"isoTOP-ABPP reactivity ratio, P24752_C196",ACAT1 C196 (P24752); in-vitro_ramos_231,0.8
same,"isoTOP-ABPP reactivity ratio, P16455_C150",MGMT C150 (P16455),1.9
CC1CCc2ccccc2N1C(=O)CCl (stereo not drawn) [compound 45],"isoTOP-ABPP reactivity profile ratio, P24752_C196",ACAT1 C196 (P24752); in-vitro_ramos_231,20.0
same,"isoTOP-ABPP reactivity profile ratio, O75362_C286","ZNF217 C286 (O75362); 500 μm, in-vitro_ramos_231",20.0
C=CC(=O)N(c1ccccc1)C1CCCCC1 [compound 46],"isoTOP-ABPP reactivity profile ratio, P24752_C196",ACAT1 C196 (P24752); in-vitro_ramos_231,0.9
same,"isoTOP-ABPP reactivity profile ratio, O75362_C286","ZNF217 C286 (O75362); 500 μm, in-vitro_ramos_231",0.9
O=C(CCl)N1CCc2cc(Br)ccc21 [compound 50],"isoTOP-ABPP reactivity profile ratio, P24752_C196",ACAT1 C196 (P24752); in-vitro_ramos_231,3.9
O=C(CCl)Nc1cccc2ncccc12 [compound 51],"isoTOP-ABPP reactivity profile ratio, P24752_C196",ACAT1 C196 (P24752); in-vitro_ramos_231,1.1
same,"isoTOP-ABPP reactivity profile ratio, O75362_C286","ZNF217 C286 (O75362); 500 μm, in-vitro_ramos",20.0
same,"isoTOP-ABPP reactivity profile ratio, O75362_C286","ZNF217 C286 (O75362); 500 μm, in-vitro_ramos_231",0.9
O=C(CCl)Nc1ccc(-c2ccccc2)cc1 [compound 52],"isoTOP-ABPP reactivity profile ratio, P24752_C196",ACAT1 C196 (P24752); in-vitro_ramos,1.5
same,"isoTOP-ABPP reactivity profile ratio, P24752_C196",ACAT1 C196 (P24752); in-vitro_ramos_231,1.3
same,"isoTOP-ABPP reactivity profile ratio, P16455_C150",MGMT C150 (P16455),2.2
same,"isoTOP-ABPP reactivity profile ratio, O75362_C286","ZNF217 C286 (O75362); 500 μm, in-vitro_ramos_231",1.0
C=CC(=O)N1CCC(Cc2ccccc2)CC1 [compound 53],"isoTOP-ABPP reactivity profile ratio, P24752_C196",ACAT1 C196 (P24752); in-vitro_ramos,0.9
same,"isoTOP-ABPP reactivity profile ratio, P24752_C196",ACAT1 C196 (P24752); in-vitro_ramos_231,1.2
same,"isoTOP-ABPP reactivity profile ratio, P16455_C150",MGMT C150 (P16455),1.1
same,"isoTOP-ABPP reactivity profile ratio, O75362_C286","ZNF217 C286 (O75362); 500 μm, in-vitro_ramos_231",1.1
